Columns and labels:
[1] = Liquid; for viscosity / mass density: 298.15 K, 101.33 kPa; for viscosity: Capillary tube (Ostwald / Ubbelohde) method; for mass density: Pycnometric method; for vapor or sublimation pressure: Ebulliometric method (Recirculating still)
[2] = refractive index (Na D-line) (dimensionless); details: 298.15 K; 101.33 kPa; Liquid; Standard Abbe refractometry

CCC(C)OCOC (stereo unspecified) [2-(methoxymethoxy)butane]
Details | mass density [kg/m3] | refractive index | viscosity [mPa·s]
[1] | 836.4 | – | 0.561
[2] | – | 1.3833 | –

[1]
Details | vapor or sublimation pressure [kPa]
346.4 K | 31.5
349.99 K | 36.4
356.07 K | 44.4
359.47 K | 49.6
363.89 K | 57.2
367.43 K | 65.1
372.48 K | 75.7
376.45 K | 85.1
379.35 K | 92
382.8 K | 101.3
385.21 K | 109.1
388.5 K | 119
391.24 K | 127.9

CCCCO [butan-1-ol]
Details | mass density [kg/m3] | refractive index | viscosity [mPa·s]
[1] | 806 | – | 2.534
[2] | – | 1.3972 | –

Details | vapor or sublimation pressure [kPa]
[1], 390.9 K | 101.3

CCC(C)O (stereo unspecified) [butan-2-ol]
Details | mass density [kg/m3] | refractive index | viscosity [mPa·s]
[1] | 802.6 | – | 3.099
[2] | – | 1.395 | –

[1]
Details | vapor or sublimation pressure [kPa]
344.47 K | 31.5
351.27 K | 42.8
356.45 K | 53.5
363.21 K | 70.7
366.85 K | 81.2
369.83 K | 91.3
372.7 K | 101.3

CO [methanol]
Details | vapor or sublimation pressure [kPa]
[1], 337.83 K | 101.3
